In patent US20220362386A1, “LIQUID COMPOSITIONS COMPRISING A LEVODOPA AMINO ACID CONJUGATE AND USES THEREOF” (NeuroDerm, Ltd., priority 2019, published 2022):
Counter-ions that a name gives are not always drawn. Like-named read-outs stand apart in the source and are kept apart here. Non-standard residues stand in square brackets, D forms with d. Residues, ends and D or L forms follow the SMILES beside them. Dopa = N[C@@H](Cc1ccc(O)c(O)c1)C(=O)O

Assays:
[1] = Human blood stability test; type: in vitro ADME; parameters: key: slope of % decrease of remaining compound over time; higher = faster metabolism; conditions: slope of the percentage decrease of remaining compound; substrate 10 μM; 0-60 minutes
Method: The stability of several LDAA compounds in human blood was tested. The substrate concentration was 10 μM and the incubation time 0, 5, 15, 30 and 60 minutes.
The results are described in Table 19, wherein the results describe the Ke, i.e., the slope of the percentage decrease of the remaining amount of the compound, measured at each of the above time points, such that the higher the Ke the faster the metabolism.

[2] = Comparative formulation tests, physical stability (Tables 32a-c, 33a-c); type: physicochemical; conditions: LDAA TFA salt/CD formulation; for Physical stability (visual), Day 1: Day 1, room temperature; for Physical stability (visual), Day 2: Day 2, room temperature; for Physical stability (visual), Day 5: Day 5, room temperature after two days at 2-8° C.; for Physical stability (visual), Day 6: Day 6, room temperature after two days at 2-8° C.; for Physical stability (visual), Day 40: Day 40, returned to 2-8° C.
Method: It is noted that the formulations were similarly to those above; however, CD was added, and further, the amounts of the antioxidants, i.e., ascorbic acid and NAC, were added at three different concentrations, as detailed in Tables 32a-c below. Further, an additional amount of arginine was added to the solution in order to adjust the pH to a physiologically acceptable pH.
The formulations prepared as detailed in Tables 32a, 32b and 32c were (a) held at room temperature for two days; (b) transferred to a refrigerator (2-8° C.) for two days; and (c) transferred from the refrigerator to room temperature for an additional two days, during which they were assessed again for precipitants. The formulations were then returned to the refrigerator (2-8° C.) and assessed for precipitants on day 40. The physical stability of each formulation was assessed on the first two days and again on the last two days. The physical stability of the formulations was assessed visually. A clear solution was considered to be stable, while a solution comprising precipitants was considered to be physically unstable. The stability results of the formulations of Tables 32a, 32b and 32c are detailed in Tables 33a, 33b and 33c, respectively.

human plasma = test: Protein binding, solid phase extraction (SPE) method; type: in vitro ADME; conditions: 1.0E−05M; SPE sample preparation
Method: (§1) A solid phase extraction (SPE) method was used to prepare samples for several compounds in the plasma protein binding assay. The following SPE protocols were followed:
(§2) Sorbent: Waters Oasis MCX 96—well MicroElution Plate—Cat #186001830BA Sample: 200 μL of plasma spiked at 10 μM with test compound. Sample was diluted 1:1 with 4% phosphoric acid in water and mixed for 15 minutes 1) Place Oasis plate on vacuum manifold and set vacuum to 5″ Hg; 2) Condition with 200 μL methanol; 3) Equilibrate with 200 μL water; 4) Load dilute plasma sample; 5) Wash with 200 μL 2% formic acid in water; 6) Wash with 400 μL methanol; and 7) Elute with 100 μL 5% NH4OH in methanol.
as §2, with “MAX 96-well” for “MCX 96—well”, “plate—Cat #186001829” for “Plate—Cat #186001830BA”, “5% NH4OH” for “2% formic acid”, “2% formic acid” for “5% NH4OH”

[3] = as above; type: in vitro ADME, human; conditions: human, human plasma, 1.0E−05M, SPE sample preparation
Method: as §1, §2
as §2, with “MAX 96-well” for “MCX 96—well”, “plate—Cat #186001829” for “Plate—Cat #186001830BA”, “5% NH4OH” for “2% formic acid”, “2% formic acid” for “5% NH4OH”

[4] = In-vitro metabolism of LDAA compounds using liver microsomes; type: in vitro ADME, human; conditions: for half-life at 0.1 μM / microsomal CLint at 0.1 μM: both sexes, human, pooled human liver microsomes; for half-life at 0.1 μM: pH 7.4, 1.0E−07M, 0.1 mg/mL microsomal protein; for microsomal CLint at 0.1 μM: pH 7.4, calculated from the half-life; for microsomal CLint at 0.1 μM / % Compound Remaining 1st / % Compound Remaining 2nd / % Compound Remaining Mean: 1.0E−07M
Method: The stability of test compounds in pooled human liver microsomes was determined on 96-well plates, wherein the test compounds were quantified at five time points by HPLC-MS/MS analysis. The assay matrix included mixed gender and a pool of 50 human liver microsomes, wherein the final microsomal protein concentration was 0.1 mg/mL. The test concentration was 0.1 μM with 0.01% DMSO, 0.25% acetonitrile and 0.25% methanol.
Each test compound was pre-incubated for five minutes with pooled liver microsomes in phosphate buffer (pH 7.4) in a 37° C. shaking water-bath. The reaction was initiated by adding a nicotinamide adenine dinucleotide phosphate (NADPH)-generating system and incubating for 0, 15, 30, 45, and 60 min. The reaction was stopped by transferring the incubation mixture to acetonitrile/methanol. Samples were then mixed and centrifuged, wherein the supernatants were used for HPLC-MS/MS analysis.
In each assay the four reference compounds propranolol, imipramine, verapamil and terfenadine were tested, wherein the propranolol and the imipramine are known to be relatively stable, while the verapamil and the terfenadine are known to be readily metabolized in human liver microsomes.
All samples were analyzed by HPLC-MS/MS using selected reaction monitoring. The HPLC system consisted of a binary LC pump with autosampler, a C-18 column, and a gradient. The conditions were adjusted when necessary.
Peak areas corresponding to the test compound were recorded. The amount of each compound remaining was calculated by comparing the peak area at each time point to time zero. The half-life is calculated from the slope of the initial linear range of the logarithmic curve of compound remaining (%) vs. time, assuming first order kinetics. In addition, the intrinsic clearance (Clint) was calculated from the half-life using the following equation:
Clint(μL/min/mg protein)=0.693/(t1/2×protein concentration)
The results of the in-vitro human liver microsome metabolism tests of various LDAA compounds (10^−7M), in their TFA salt forms, are provided in FIG. 1 and in Table 17, which presents the % of the compound remaining at times 0, 15, 30, 45 and 60 minutes, two half-life measurements and the Clint, calculated as detailed above.

[5] = NB 144-15, ~0.1% Asc + ~0.1% NAC
[6] = NB 144-18, ~0.4% Asc + ~0.4% NAC
[7] = NB 144-20, ~0.8% Asc + ~0.8% NAC
[8] = read-out: Half-Life (minute) 1st
[9] = read-out: Half-Life (minute) 2nd
[10] = read-out: Half-Life (minute) Mean

SMILES	Ke [1]	Physical stability (visual), Day 1 [2, 5]	Physical stability (visual), Day 2 [2, 5]	Physical stability (visual), Day 5 [2, 5]	Physical stability (visual), Day 6 [2, 5]	Physical stability (visual), Day 40 [2, 5]	Physical stability (visual), Day 1 [2, 6]	Physical stability (visual), Day 2 [2, 6]	Physical stability (visual), Day 5 [2, 6]	Physical stability (visual), Day 6 [2, 6]	Physical stability (visual), Day 40 [2, 6]	Physical stability (visual), Day 1 [2, 7]	Physical stability (visual), Day 2 [2, 7]	Physical stability (visual), Day 5 [2, 7]	Physical stability (visual), Day 6 [2, 7]	Physical stability (visual), Day 40 [2, 7]	% Protein Bound 1st (human plasma)	% Protein Bound Mean (human plasma)	recovery at 10 μM ([3]; read-out: % Recovery 1st)	recovery at 10 μM ([3]; read-out: % Recovery 2nd)	further results
N[C@@H](Cc1ccc(O)c(O)c1)C(=O)N[C@@H](CC(=O)O)C(=O)O [LD-Asp TFA salt, Levodopa Aspartic Acid] (H-[Dopa]-Asp-OH)	0.0014	Stable	Stable	Stable	Stable	Stable	Stable	Stable	Stable	Stable	Stable	Stable	Stable	Stable	Stable	Stable	47.8%	41%	55%	64%	% Protein Bound 2nd (human plasma): 34.1%; recovery at 10 μM ([3]; read-out: % Recovery Mean): 60%
N[C@@H](CSC[C@@H](NC(=O)[C@@H](N)Cc1ccc(O)c(O)c1)C(=O)O)C(=O)O (single isomer, unassigned; peak 1) [LD-LA1 TFA salt, Levodopa Lanthionine Peak 1 TFA Salt]	−0.011	Stable	Stable	Stable	Stable	Stable	Precipitated	Precipitated	Precipitated	Precipitated	Precipitated	Stable	Stable	Stable	Stable	Stable					half-life at 0.1 μM [4, 8]: 139 min; half-life at 0.1 μM [4, 9]: 87.3 min; half-life at 0.1 μM [4, 10]: > 60 min; microsomal CLint at 0.1 μM [4]: < 116 µL/min/mg; % Compound Remaining 1st ([4]; incubation time 0 minutes): 100%; % Compound Remaining 2nd ([4]; incubation time 0 minutes): 100%; % Compound Remaining Mean ([4]; incubation time 0 minutes): 100%; % Compound Remaining 1st ([4]; incubation time 15 minutes): {129.4%; % Compound Remaining 2nd ([4]; incubation time 15 minutes): 110.4%; % Compound Remaining Mean ([4]; incubation time 15 minutes): 110%; % Compound Remaining 1st ([4]; incubation time 30 minutes): {125.6%; % Compound Remaining 2nd ([4]; incubation time 30 minutes): 77.6%; % Compound Remaining Mean ([4]; incubation time 30 minutes): 78%; % Compound Remaining 1st ([4]; incubation time 45 minutes): 79.7%; % Compound Remaining 2nd ([4]; incubation time 45 minutes): 77.9%; % Compound Remaining Mean ([4]; incubation time 45 minutes): 79%; % Compound Remaining 1st ([4]; incubation time 60 minutes): 74.2%; % Compound Remaining 2nd ([4]; incubation time 60 minutes): 65.6%; % Compound Remaining Mean ([4]; incubation time 60 minutes): 70%
N[C@@H](CSC[C@H](NC(=O)[C@@H](N)Cc1ccc(O)c(O)c1)C(=O)O)C(=O)O (single isomer, unassigned; peak 2) [LD-LA2 TFA salt, Levodopa Lanthionine Peak 2 TFA Salt]	0.0128																18.7%	18.7%	39%	46%	half-life at 0.1 μM [4, 8]: 75.7 min; half-life at 0.1 μM [4, 9]: 110 min; half-life at 0.1 μM [4, 10]: > 60 min; microsomal CLint at 0.1 μM [4]: < 116 µL/min/mg; % Compound Remaining 1st ([4]; incubation time 0 minutes): 100%; % Compound Remaining 2nd ([4]; incubation time 0 minutes): 100%; % Compound Remaining Mean ([4]; incubation time 0 minutes): 100%; % Compound Remaining 1st ([4]; incubation time 15 minutes): 122.9%; % Compound Remaining 2nd ([4]; incubation time 15 minutes): 103.5%; % Compound Remaining Mean ([4]; incubation time 15 minutes): 113%; % Compound Remaining 1st ([4]; incubation time 30 minutes): 105.6%; % Compound Remaining 2nd ([4]; incubation time 30 minutes): 94.5%; % Compound Remaining Mean ([4]; incubation time 30 minutes): 100%; % Compound Remaining 1st ([4]; incubation time 45 minutes): 97.5%; % Compound Remaining 2nd ([4]; incubation time 45 minutes): 102%; % Compound Remaining Mean ([4]; incubation time 45 minutes): 100%; % Compound Remaining 1st ([4]; incubation time 60 minutes): 56.5%; % Compound Remaining 2nd ([4]; incubation time 60 minutes): 62.9%; % Compound Remaining Mean ([4]; incubation time 60 minutes): 60%; recovery at 10 μM ([3]; read-out: % Recovery Mean): 43%
